Results: US11840686B2, “Modulation of prekallikrein (PKK) expression” (Ionis Pharmaceuticals, Inc., priority 2013, dated 2023)
Strand notation (5' to 3'): a small letter for the sugar, then the base; units joined by * are phosphorothioate-linked, units joined directly phosphodiester-linked; [ ] holds rarer units or linkages, { } end groups; capitals alone tell only the bases. e = 2'-O-(2-methoxyethyl) (MOE); k = constrained ethyl (cEt); [5mC] = 5-methylcytosine; d = 2'-deoxy (DNA)

Tested on: human PKK mRNA
Assay: Antisense inhibition of human PKK mRNA in HepaRG cells, 1,000 nM, MOE/deoxy/cEt oligonucleotides (Example 3)
Assay type: cell-based
Outline: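 HepaRG cells at 20,000 per well electroporated with 1,000 nM 16-mer MOE/cEt/deoxy gapmers (phosphorothioate, 5-methylcytosine). After about 24 h, PKK mRNA measured by qRT-PCR with primer probe set RTS3454, normalized to RIBOGREEN total RNA. Reported as percent inhibition versus untreated cells.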

[1] = HepaRG cells, electroporation with 1,000 nM antisense oligonucleotide, approximately 24 hours, primer probe set RTS3454, relative to untreated control cells, experiment of Table 24
[2] = Table 27, HepaRG cells, 1,000 nM antisense oligonucleotide, human PKK mRNA
[3] = PKK mRNA, HepaRG cells, 1,000 nM antisense oligonucleotide, Table 31
[4] = HepaRG cells, 1,000 nM antisense oligonucleotide, Table 29
[5] = Table 19, HepaRG cells, electroporation with 1,000 nM antisense oligonucleotide, approximately 24 hours, PKK mRNA by RT-PCR (RTS3454), relative to untreated control cells
[6] = HepaRG cells, electroporation with 1,000 nM antisense oligonucleotide, approx. 24 hours, PKK mRNA by RT-PCR (RTS3454), relative to untreated control cells, Table 25 experiment
[7] = Table 30, human PKK mRNA, HepaRG cells, 1,000 nM antisense oligonucleotide
[8] = HepaRG cells, electroporation with 1,000 nM antisense oligonucleotide, approx. 24 hours, PKK mRNA by RT-PCR (RTS3454), relative to untreated control cells, Table 26 experiment
[9] = Table 21 experiment, HepaRG cells, electroporation with 1,000 nM antisense oligonucleotide, approx. 24 hours, PKK mRNA by RT-PCR (RTS3454), relative to untreated control cells
[10] = Table 20, HepaRG cells, electroporation with 1,000 nM antisense oligonucleotide, approximately 24 hours, PKK mRNA by RT-PCR (RTS3454), relative to untreated control cells
[11] = Table 22 experiment, HepaRG cells, electroporation with 1,000 nM antisense oligonucleotide, approx. 24 hours, PKK mRNA by RT-PCR (RTS3454), relative to untreated control cells
[12] = HepaRG cells, electroporation with 1,000 nM antisense oligonucleotide, approximately 24 hours, primer probe set RTS3454, relative to untreated control cells, experiment of Table 23
[13] = Table 28, HepaRG cells, 1,000 nM antisense oligonucleotide, human PKK mRNA

548065 (eT*eT*kG*dG*dT*dA*dT*dA*dA*dA*dT*dT*dG*kT*kG*e[5mC]; antisense) [compound 548065]
% inhibition [1]: 22%

548377 (eG*eT*kG*dT*dG*d[5mC]*dT*dG*dA*dG*dG*dT*dT*kT*kG*e[5mC]; antisense) [compound 548377]
% inhibition [2]: 80%

548640 (antisense eG*eA*kA*dT*dG*dT*dT*dG*d[5mC]*dT*dG*dT*d[5mC]*k[5mC]*k[5mC]*eA) [compound 548640]
% inhibition [3]: 32%

548611 (antisense eG*e[5mC]*kG*dG*dG*dA*dT*d[5mC]*dG*dG*dT*dG*dG*kT*kG*eG) [compound 548611]
% inhibition [4]: 7%

548040 (eG*eT*kG*dA*dG*dA*dA*dA*dG*dG*dT*dG*dT*kA*kT*e[5mC]; antisense) [compound 548040]
% inhibition [1]: 62%

548088 (antisense eA*eA*k[5mC]*dT*dA*dA*dG*dG*dG*dA*d[5mC]*d[5mC]*dA*k[5mC]*k[5mC]*eT) [compound 548088]
% inhibition [5]: 27%

548566 (antisense e[5mC]*eA*k[5mC]*dT*d[5mC]*dA*dG*dA*d[5mC]*dT*dG*dT*d[5mC]*kT*kG*eA) [compound 548566]
% inhibition [4]: 0%

548163 (eA*e[5mC]*k[5mC]*dT*d[5mC]*dG*d[5mC]*dA*dT*dT*dG*dT*d[5mC]*kA*kG*e[5mC]; antisense) [compound 548163]
% inhibition [6]: 46%

548415 (antisense eA*eT*kA*dA*d[5mC]*dT*d[5mC]*dT*dA*dA*d[5mC]*dA*dG*kT*kA*eT) [compound 548415]
% inhibition [7]: 0%

548382 (eG*eA*kG*d[5mC]*dA*dA*dA*dT*dA*d[5mC]*dA*dG*dT*k[5mC]*k[5mC]*eA; antisense) [compound 548382]
% inhibition [7]: 19%

548090 (antisense e[5mC]*eA*kA*dA*d[5mC]*dT*dA*dA*dG*dG*dG*dA*d[5mC]*k[5mC]*kA*e[5mC]) [compound 548090]
% inhibition [5]: 46%

548439 (antisense e[5mC]*e[5mC]*kT*dA*dT*dA*dT*d[5mC]*dA*d[5mC]*dT*dG*dT*kA*k[5mC]*e[5mC]) [compound 548439]
% inhibition [7]: 46%

548631 (antisense e[5mC]*eT*k[5mC]*dA*d[5mC]*dA*dA*dT*dA*d[5mC]*dT*dG*dA*kG*k[5mC]*e[5mC]) [compound 548631]
% inhibition [3]: 55%

548287 (eG*eT*k[5mC]*dA*dA*dA*dG*dA*dG*dT*dG*dT*d[5mC]*k[5mC]*kA*e[5mC]; antisense) [compound 548287]
% inhibition [8]: 38%

548562 (antisense eA*eG*kA*dT*dG*dA*d[5mC]*d[5mC]*dT*dG*d[5mC]*dA*dG*kA*kT*eG) [compound 548562]
% inhibition [4]: 50%

547765 (antisense eA*eG*kG*dT*dG*dA*dG*dT*d[5mC]*dT*d[5mC]*dT*dT*kG*kT*e[5mC]) [compound 547765]
% inhibition [9]: 20%

548028 (eG*eG*kT*dG*dT*d[5mC]*d[5mC]*dT*dA*dT*dG*dA*dG*kT*kG*eA; antisense) [compound 548028]
% inhibition [1]: 38%

547863 (antisense eT*eG*kA*d[5mC]*dT*d[5mC]*d[5mC]*dT*d[5mC]*dT*d[5mC]*dA*dT*kA*kT*e[5mC]) [compound 547863]
% inhibition [10]: 73% | % inhibition [11]: 77%

548228 (eG*eT*kT*dG*dT*dG*dT*dG*dG*d[5mC]*d[5mC]*d[5mC]*dT*k[5mC]*kT*eT; antisense) [compound 548228]
% inhibition [8]: 37%

547962 (antisense eT*eT*kT*dG*d[5mC]*dA*dG*dG*dT*dT*dA*dA*dA*kA*kG*eG) [compound 547962]
% inhibition [12]: 16%

547928 (eG*eA*kT*dG*dG*dT*d[5mC]*d[5mC]*dG*dA*d[5mC]*dA*d[5mC]*kA*k[5mC]*eA; antisense) [compound 547928]
% inhibition [12]: 70%

548399 (eA*eG*kT*d[5mC]*d[5mC]*dT*dA*d[5mC]*dA*dA*dT*dT*dA*k[5mC]*k[5mC]*eA; antisense) [compound 548399]
% inhibition [7]: 11%

548492 (antisense eG*e[5mC]*k[5mC]*d[5mC]*dA*dA*dT*dG*dT*d[5mC]*d[5mC]*dT*dA*kA*k[5mC]*e[5mC]) [compound 548492]
% inhibition [13]: 51%

548185 (eA*eA*k[5mC]*dA*d[5mC]*dA*d[5mC]*dA*dG*dT*d[5mC]*dA*dT*kG*kG*eA; antisense) [compound 548185]
% inhibition [6]: 23%

547790 (antisense eT*eG*kA*dA*dA*dT*dA*dA*dG*dT*dT*dG*d[5mC]*kT*kT*eG) [compound 547790]
% inhibition [9]: 23%

547787 (antisense eA*eA*kG*dT*dT*dG*d[5mC]*dT*dT*dG*d[5mC]*dT*dT*kG*kA*eA) [compound 547787]
% inhibition [9]: 22%

548211 (eA*e[5mC]*k[5mC]*dA*dA*d[5mC]*dA*dA*dT*d[5mC]*dT*d[5mC]*dT*kG*kG*eT; antisense) [compound 548211]
% inhibition [6]: 51%

547999 (antisense e[5mC]*e[5mC]*kT*dT*dG*dT*dG*dT*d[5mC]*d[5mC]*d[5mC]*dA*dT*kA*k[5mC]*eG) [compound 547999]
% inhibition [1]: 50%

547868 (antisense eA*e[5mC]*k[5mC]*dT*dT*dA*dG*dA*d[5mC]*dA*d[5mC]*dA*dT*kT*kA*eA) [compound 547868]
% inhibition [10]: 47% | % inhibition [11]: 71%

548465 (e[5mC]*eT*kG*dT*dA*d[5mC]*d[5mC]*dT*dA*dT*dA*dA*d[5mC]*kT*kG*eT; antisense) [compound 548465]
% inhibition [13]: 0%

547814 (eG*eG*kG*dT*dG*dG*dA*dA*dT*dG*dT*dG*d[5mC]*kA*k[5mC]*e[5mC]; antisense) [compound 547814]
% inhibition [9]: 60%

548443 (antisense eG*eT*kT*dT*d[5mC]*d[5mC]*dT*dA*dT*dA*dA*d[5mC]*dA*kG*kT*eA) [compound 548443]
% inhibition [7]: 12%

548684 (antisense e[5mC]*eA*kA*dG*dA*d[5mC]*d[5mC]*dT*dT*dG*d[5mC]*dT*dT*kG*k[5mC]*e[5mC]) [compound 548684]
% inhibition [3]: 24%

548444 (antisense e[5mC]*eT*kA*dT*dG*dT*d[5mC]*dA*d[5mC]*dT*dG*dT*dA*k[5mC]*k[5mC]*eT) [compound 548444]
% inhibition [7]: 43%

548002 (antisense eA*eA*k[5mC]*d[5mC]*dA*dG*dA*dG*d[5mC]*dT*d[5mC]*d[5mC]*d[5mC]*kT*kT*eG) [compound 548002]
% inhibition [1]: 56%

548536 (antisense eT*e[5mC]*kT*d[5mC]*dA*dA*dT*d[5mC]*d[5mC]*d[5mC]*dA*dA*d[5mC]*k[5mC]*k[5mC]*e[5mC]) [compound 548536]
% inhibition [4]: 0%

548371 (e[5mC]*eG*kA*dT*dG*dA*dG*dT*dT*dG*dG*dG*d[5mC]*kA*kG*eG; antisense) [compound 548371]
% inhibition [2]: 57%

547945 (eA*eA*k[5mC]*dT*dT*dG*dG*dT*dG*dT*dG*d[5mC]*d[5mC]*kA*k[5mC]*eT; antisense) [compound 547945]
% inhibition [12]: 62%

548449 (eA*eT*k[5mC]*dA*d[5mC]*dT*dG*dT*d[5mC]*d[5mC]*dT*dA*dT*kG*kT*e[5mC]; antisense) [compound 548449]
% inhibition [7]: 62%

548505 (antisense eG*eG*kA*d[5mC]*dA*dA*dT*dG*d[5mC]*d[5mC]*dT*dA*dT*kG*k[5mC]*eT) [compound 548505]
% inhibition [13]: 21%
